The source of these data is ChEMBL document CHEMBL1131888, “Synthesis, dopamine and serotonin transporter binding affinities of novel analogues of meperidine” (Bioorg Med Chem Lett, 1999).

The target in experiment [1] is Sodium-dependent dopamine transporter (Rattus norvegicus) (UniProt P23977). The experiment can be described thus: Inhibition of binding affinity for dopamine transporter (DAT) by competition against bound [3H]WIN-35428 tested in vitro at a dose of 100 uM.
Experiment [2] concerns the target Sodium-dependent dopamine transporter (Rattus norvegicus, UniProt P23977). In words: Displacement of [3H]WIN-35428 from dopamine transporter (DAT). For orientation: In a radioligand displacement assay an active substance lowers the binding of a labelled ligand.
Experiment [3] has as its target Sodium-dependent serotonin transporter (Rattus norvegicus, UniProt P31652). In words: Displacement of [3H]paroxetine from serotonin transporter (SERT).
The target in experiment [4] is Monoamine transporters; serotonin & dopamine (Rattus norvegicus) (UniProt P31652+P23977). In words: Relative affinity for dopamine and serotonin transporters. Format: protein assay.
Chain of Monoamine transporters; serotonin & dopamine (Rattus norvegicus) (P23977 whole entry, looked up): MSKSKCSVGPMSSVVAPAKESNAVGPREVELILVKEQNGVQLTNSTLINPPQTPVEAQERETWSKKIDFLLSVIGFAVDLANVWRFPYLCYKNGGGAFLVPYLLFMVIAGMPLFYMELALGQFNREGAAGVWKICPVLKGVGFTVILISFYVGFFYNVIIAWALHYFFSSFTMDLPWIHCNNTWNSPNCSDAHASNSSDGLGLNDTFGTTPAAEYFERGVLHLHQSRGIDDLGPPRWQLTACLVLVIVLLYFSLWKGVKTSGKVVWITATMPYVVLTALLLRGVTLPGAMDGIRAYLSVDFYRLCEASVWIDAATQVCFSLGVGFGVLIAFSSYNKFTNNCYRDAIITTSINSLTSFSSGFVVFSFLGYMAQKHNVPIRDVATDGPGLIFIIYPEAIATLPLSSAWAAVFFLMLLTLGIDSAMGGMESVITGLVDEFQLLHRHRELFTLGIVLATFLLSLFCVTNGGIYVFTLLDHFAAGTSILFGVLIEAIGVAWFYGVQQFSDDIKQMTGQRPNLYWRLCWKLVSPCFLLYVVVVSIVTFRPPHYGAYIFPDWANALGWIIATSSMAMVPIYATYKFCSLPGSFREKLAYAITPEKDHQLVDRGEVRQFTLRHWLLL
Chain of Monoamine transporters; serotonin & dopamine (Rattus norvegicus) (P31652 whole entry, looked up): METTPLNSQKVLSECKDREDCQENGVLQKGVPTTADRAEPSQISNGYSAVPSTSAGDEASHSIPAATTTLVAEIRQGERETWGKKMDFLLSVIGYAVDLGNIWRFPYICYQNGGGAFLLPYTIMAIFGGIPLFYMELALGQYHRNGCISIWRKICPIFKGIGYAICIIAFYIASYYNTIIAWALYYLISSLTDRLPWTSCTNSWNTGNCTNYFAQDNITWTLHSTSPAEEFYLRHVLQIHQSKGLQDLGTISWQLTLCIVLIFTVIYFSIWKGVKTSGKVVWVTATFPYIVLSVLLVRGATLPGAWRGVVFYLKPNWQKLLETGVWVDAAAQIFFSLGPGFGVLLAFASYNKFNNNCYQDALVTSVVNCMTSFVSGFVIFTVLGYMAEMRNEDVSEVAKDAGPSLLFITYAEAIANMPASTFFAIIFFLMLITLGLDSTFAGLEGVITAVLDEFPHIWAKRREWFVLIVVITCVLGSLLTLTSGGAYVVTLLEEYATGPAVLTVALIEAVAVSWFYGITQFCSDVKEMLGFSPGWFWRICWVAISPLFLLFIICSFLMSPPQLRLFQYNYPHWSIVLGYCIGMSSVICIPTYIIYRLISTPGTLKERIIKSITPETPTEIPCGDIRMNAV

Chain of Sodium-dependent serotonin transporter (P31652 whole entry): as the sequence (P31652 whole entry, looked up) above
Chain of Sodium-dependent dopamine transporter (Rattus norvegicus) (P23977 whole entry): as the sequence (P23977 whole entry, looked up) above
Chain of Sodium-dependent dopamine transporter (P23977 whole entry): as the sequence (P23977 whole entry, looked up) above

One may read the inhibition as how much of the control response was suppressed. The low end stands for a response near the control, the high end for a response far below the control. As a reminder, the Ki is the dissociation constant of the complex between target and ligand, obtained from inhibition or displacement. Low values mean a stronger hold on the target, high ones a looser hold on the target. For the molecule `Cc1ccc(C2(C#N)CCN(C)CC2)cc1`, the inhibition in experiment [1] is 68%. Moreover, the Ki in experiment [2] turned out to be 41.8 µM; in experiment [3], 13.7 µM. The molecule further returned a Selectivity in experiment [4] of 3.06.
In the same order, the values of `CCOC(=O)C1(c2ccc(C)cc2)CCN(C)CC1` are 68%, 12.4 µM, 1.61 µM and 7.69.
For the molecule `CCOC(=O)C1(c2ccc(I)cc2)CCN(C)CC1`, the values for the Ki in experiment [2] and in experiment [3] were 3.25 µM and 0.021 µM, respectively. In addition, the Selectivity in experiment [4] is 155.
On the same counts, the results for `CCOC(=O)C1(c2ccc(F)cc2)CCN(C)CC1` are 10.7 µM, 0.308 µM and 34.7.
Molecule `CN1CCC(C#N)(c2ccc(Cl)cc2)CC1` displayed an inhibition in experiment [1] of 79%. Also, the Ki in experiment [2] came to 22 µM; in experiment [3] it was 5.11 µM. The Selectivity in experiment [4] turned out to be 4.31.
In experiment [1], `CN1CCC(C#N)(c2ccc(F)cc2)CC1` gave an inhibition of 45%. The molecule further had a Ki in experiment [3] of 10.1 µM.
`CCOC(=O)C1(c2ccc3ccccc3c2)CCN(C)CC1`: the Ki stood at 1.14 µM in experiment [2] and 0.0072 µM in experiment [3]. Moreover, in experiment [4], the Selectivity was found to be 158.
The molecule `CN1CCC(C#N)(c2ccc(I)cc2)CC1` displayed a Ki in experiment [3] of 0.43 µM. In experiment [4], this molecule returned a Selectivity of 19.4.
Consider `CN1CCC(C#N)(c2ccc(Cl)c(Cl)c2)CC1`, for which the Ki in experiment [2] is 2.67 µM; in experiment [3], 0.805 µM. This molecule also displayed a Selectivity in experiment [4] of 3.32.
In the same order, the values of `CN1CCC(C#N)(c2ccc3ccccc3c2)CC1` are 2.36 µM, 0.125 µM and 18.9.
On the same counts, the results for `CCOC(=O)C1(c2ccc(Cl)c(Cl)c2)CCN(C)CC1` are 0.125 µM, 0.019 µM and 6.68.
In the same order, the values of `CN1CCC(C#N)(c2cccc3ccccc23)CC1` are 16 µM, 1.02 µM and 16.7.
In turn, `CCOC(=O)C1(c2ccc(Cl)cc2)CCN(C)CC1` gave an inhibition in experiment [1] of 79%. Also, the inhibitory constant (Ki) in experiment [2] was 4.1 µM; in experiment [3], 0.277 µM. This molecule yielded a Selectivity in experiment [4] of 14.8.
